ChEMBL document CHEMBL2384979, “Synthesis of the (1→6)-linked thiodisaccharide of galactofuranose: inhibitory activity against a β-galactofuranosidase” (Bioorg Med Chem, 2013)
pIC50, pKi: −log10 of the molar value.

Assays:
[1] = Competitive inhibition of Penicillium fellutanum exo-beta-galactofuranosidase assessed as 4-Nitrophenyl beta-D-galactofuranoside conversion to 4-nitrophenol after 1.5 hrs by Lineweaver-Burk plot analysis
[2] = Inhibition of Penicillium fellutanum exo-beta-galactofuranosidase assessed as 4-Nitrophenyl beta-D-galactofuranoside conversion to 4-nitrophenol after 1.5 hrs by spectrophotometric analysis

| pKi [1] | pIC50 [2] | Compound |
| --- | --- | --- |
| 4.00 | – | O=C1O[C@@H]([C@H](O)CO)[C@H](O)[C@H]1O |
| 2.44 | – | CO[C@@H]1O[C@@H]([C@H](O)CS[C@@H]2O[C@@H]([C@H](O)CO)[C@H](O)[C@H]2O)[C@H](O)[C@H]1O |
| – | 4.10 | Nc1ccc(S[C@@H]2O[C@@H]([C@H](O)CO)[C@H](O)[C@H]2O)cc1 |
| – | 3.22 | O=[N+]([O-])c1ccc(S[C@@H]2O[C@@H]([C@H](O)CO)[C@H](O)[C@H]2O)cc1 |
